The test system of the assay is typical microorganisms encountered in personal care compositions. The source says: The cleansing compositions, e.g. any of Composition 1 or 1.1 to 1.27, include as preservatives, phenoxyethanol, sodium salicylate and a chelating agent (e.g., a salt of ethylenediaminetetraacetic acid). […] It is well known that preservative agents have established minimum inhibitory concentrations, and below such concentrations preservative agents are not effective in preventing microbial growth.

Molecules are shown by their SMILES.

Consider `O=C([O-])c1ccccc1O.[Na+]` [sodium salicylate], for which the MIC result is “about 0.019 % by weight”.

The record behind these values is patent US20190282476A1, “Cleansing Composition” (Colgate-Palmolive Company, priority 2015, published 2019).
